Assay results published in patent US20240117385A1, “ENZYMES OF LUCIFERIN BIOSYNTHESIS AND USE THEREOF” (LIGHT BIO, INC., priority 2018, published 2024).
Blank lines part the entries; values can stand above or below the molecule they belong to.

What was measured:
[1] = test system: hispidin hydroxylase and luciferase fusion protein; assay: Bioluminescence of HEK293T cells expressing hispidin hydroxylase and luciferase fusion protein; assay type: cell-based, Neonothopanus nambi; conditions: 24 hours after transfection, 1 million of cells in 0.5 ml PBS; hispidin 10 μg per 1 million of cells
Text: Humanized DNA sequences coding hispidin-hydroxylase and luciferase of Neonothopanus nambi, obtained according to Example 2, were operatively cross-linked to each other by flexible short peptide linker with amino acid sequence GGSGGSGGS (SEQ ID NOs:115). Nucleotide and amino acid sequences of the obtained fused protein are shown in SEQ ID NO 101 and 102. Nucleic acid coding fused protein was cloned into pEGFP-N1 vector (Clontech, USA) instead of EGFP gene under Cytomegaloviral promoter control. The obtained structure was transfected into HEK293T cells. Analogous vectors, comprising individual genes of hispidin hydroxylase and luciferase, were also co-transfected. Transfection was performed by transfection agent FuGENE HD (Promega, USA) according to the manufacturer's protocol. 24 hours after transfection 1 million of cells were resuspended in 0.5 ml of PBS, and luminescence without adding hispidin and with addition of hispidin (10 μg per 1 million of cells) was recorded by luminometer.

[2] = test system: Neonothopanus nambi luciferase; assay: Bioluminescence reaction of biosynthetic 3-hydroxyhispidin; assay type: biochemical; conditions: 3-hydroxyhispidin purified from fermenter medium by HPLC
Text: Expression cassette, comprising nucleic acid coding Neonothopanus nambi hispidin hydroxylase (SEQ ID NOs 1, 2) under control of J23100 promoter, was obtained synthetically and cloned into bacterial expression vector comprising spectinomycin resistance gene. The obtained vector was transformed into E. coli cells expressing Neonothopanus nambi hispidin-synthase, Zeocin resistance gene and NpgA gene, obtained according to Example 12. The obtained bacteria were used for producing 3-hydroxyhispidin by fermentation according to the protocol described in Example 12, however with adding of spectinomycin at concentration of […] in all media used for cultivation. After 48 hours of cultivation the 3-hydroxyhispidin concentration in the medium was 2.3 g/l.

[3] = test system: hispidin-synthase of Neonothopanus nambi; assay: Determination of hispidin synthase functionality; assay type: biochemical; conditions: 20 μM caffeic acid
Text: (§1) Polyhistidine (H is tag) coding sequence was operatively attach ed to 5′-ends of nucleic acids coding hispidin-synthase and caffeylpyruvate hydrolase of Neonothopanus nambi, obtained according to Example 9, and the obtained structures were cloned into pET-23 vector by means of restriction endonucleases NotI and SacI. The vectors were used for transformation of Escherichia coli cells of BL21-DE3-codon+ strain, performed by electroporation. The transformed cells were dispersed in Petri dishes with LB medium, comprising 1.5% of agar, 100 μg/ml of ampicillin, and incubated overnight at 37° C. […]
(§2) For determination of hispidin synthase functionality 30 μl of isolated recombinant protein solution were put into a glass tube, comprising 100 μl of the buffer (0.2 M of Na-phosphate buffer, 0.5 M of Na2SO4, 0.1% dodecylmaltoside (DDM) pH 8.0, all components—Sigma-Aldrich, USA), 0.5 μl of purified recombinant luciferase of Neonothopanus nambi, obtained according to Example 4, 1 mM of NADPH (Sigma-Aldrich, USA), 15 μl of purified recombinant hispidin hydroxylase of Neonothopanus nambi, obtained according to Example 4, 10 mM of ATP (ThermoFisher Scientific, USA), 1 mM of CoA (Sigma-Aldrich, USA), 1 mM of malonyl-CoA (Sigma-Aldrich, USA). […] Maximum emission of the emitted luminescence was 520-535 nm.

[4] = test system: Autonomously bioluminescent transgenic plants Nicotiana benthamiana; assay: Effect of external adding caffeic acid on transgenic plant bioluminescence; assay type: in vivo; conditions: 0.4-6.4 g/l, two hours of incubation
Protocol: Autonomously bioluminescent transgenic plants Nicotiana benthamiana, obtained according to Example 16, were transferred to soil and cultured within eight weeks. Then, plant stem was cut and placed in water for two hours, after that, bioluminescence intensity was measured by IVIS Spectrum In Vivo Imaging System (Perkin Elmer). Then, plants were transferred to one of five water solutions at caffeic acid concentration of 0.4 g/l, 0.8 g/l, 1.6 g/l, 3.2 g/l, or 6.4 g/l, and control plants were placed in water. After two more hours of incubation in the caffeic acid solution or in water bioluminescence intensity was measured again.

[5] = test system: caffeylpyruvate hydrolase of Neonothopanus nambi; assay: Determination of caffeylpyruvate hydrolase functionality; assay type: biochemical; conditions: 25 μM caffeoyl pyruvate
Text: as §1
For determination of caffeylpyruvate hydrolase functionality 10 μl of isolated recombinant protein solution were put into a glass tube, comprising 100 μl of the buffer (0.2 M of Na-phosphate buffer, 0.5 M of Na2SO4, 0.1% dodecylmaltoside (DDM) pH 8.0, 0.5 μl of luciferase of Neonothopanus nambi, 1 mM of NADPH (Sigma-Aldrich, USA), 15 μl of hispidin hydroxylase 10 mM of ATP (ThermoFisher Scientific, USA), 1 mM of CoA (Sigma-Aldrich, USA), 1 mM of malonyl-CoA (Sigma-Aldrich, USA), 30 μl of purified recombinant hispidin synthase. The glass tube was placed into a luminometer GloMax 20/20 (Promega, USA). […] Maximum emission of the emitted luminescence was 520-535 nm.

[6] = test system: PKS from Hydrangea macrophylla; assay: Functionality of recombinant PKS; assay type: biochemical; conditions: 20 μM caffeyl-CoA
Protocol: as §2, with “Nucleic acid coding PKS from Hydrangea macrophylla (SEQ ID NOs: 124, 125) was used for producing recombinant protein according to the technique described in Example 4. Presence” for “For determination”, “the expected recombinant product was confirmed by electrophoresis as bands of the expected length were available. Aliquots of the isolated recombinant protein were used for verifying” for “hispidin synthase”, “functionality of:” for “functionality”, “USA). The glass tube was placed into a luminometer GloMax 20/20 (Promega, USA).” for “USA).”

Arabidopsis thaliana = assay: Caffeylpyruvate hydrolase effect on luminescence of autonomously bioluminescent plants; assay type: in vivo; conditions: on average
Text: For the purpose of study of caffeylpyruvate hydrolase effect on luminescence of autonomously bioluminescent organisms there was used a binary vector for agrobacterium transformation comprising coding sequences of Neonothopanus nambi luciferase, Neonothopanus nambi hispidin hydroxylase, Neonothopanus nambi hispidin synthase, Neonothopanus nambi caffeylpyruvate hydrolase and kanamycin resistance gene, and each gene is under control of 35S promoter from cauliflower mosaic virus, obtained according to Example 16, and control vector characterized in that caffeylpyruvate hydrolase sequence was removed from it. The vectors were used for transformation of Arabidopsis thaliana in the same conditions according to the protocol described in Example 16. Bioluminescence was visualized by means of IVIS Spectrum In Vivo Imaging System (Perkin Elmer). […] The data provided indicate that expression of caffeylpyruvate hydrolase enables to increase bioluminescent cascade efficiency, that results in increasing the intensity of luminescence emitted by plants.

Molecule: O=c1oc(/C=C/c2ccc(O)c(O)c2)cc(O)c1O [3-hydroxy hispidin, (E)-6-(3,4-dihydroxystyryl)-3,4-dihydroxy-2H-pyran-2-one]
cell luminescence on addition [1]: caused bioluminescent signal
activity in bioluminescence reaction [2]: active in bioluminescence reaction

Molecule: O=C(O)/C=C/c1ccc(O)c(O)c1 [caffeic acid]
bioluminescence of reaction mixture [3]: demonstrated bioluminescence
change of bioluminescence intensity vs before placing in caffeic acid solution [4]: increased

Molecule: O=C(/C=C/c1ccc(O)c(O)c1)/C=C(/O)C(=O)O [caffeoyl pyruvate, (2E,5E)-6-(3,4-dihydroxyphenyl)-2-hydroxy-4-oxohexa-2,5-diene acid]
Bioluminescence of the reaction mixture [5]: Bioluminescence of the reaction mixture was detected

Molecule: CC(C)(COP(=O)(O)OP(=O)(O)OC[C@H]1O[C@@H](n2cnc3c(N)ncnc32)[C@H](O)[C@@H]1OP(=O)(O)O)[C@@H](O)C(=O)NCCC(=O)NCCSC(=O)/C=C/c1ccc(O)c(O)c1 [caffeyl-CoA]
bioluminescence of reaction mixtures [6]: demonstrated bioluminescence

brightness of bioluminescence vs plants expressing only luciferase, hispidin hydroxylase and hispidin synthase (Arabidopsis thaliana): 8.3 times
B1: Neonothopanus nambi caffeylpyruvate hydrolase: enzyme converting caffeylpyruvate to caffeic acid, expressed in transgenic plants (protein, listed as Neonothopanus nambi)
chain: MAPISSTWSRLIRFVAIETSLVHIGEPIDATMDVGLARREGKTIQAYEIIGSGSALDLSAQVSKNVLTVRELLMPLSREEIKTVRCLGLNYPVHATEANVAVPKFPNLFYKPVTSLIGPDGLITIPSVVQPPKEHQSDYEAELVIVIGKAAKNVSEDEALDYVLGYTAANDISFRKHQLAVSQWSFSKGFGSLLLTIRMAQTHSGNINRFSRDQIFNVKKTISFLSQGTTLEPGSIILTGTPDGVGFVRNPPLYLKDGDEVMTWIGSGIGTLANTVQEEKTCFASGGHE
